From PMC10287695, “Non-covalent inhibitors of thioredoxin glutathione reductase with schistosomicidal activity in vivo” (Nature Communications, 2023)
Several values for one entry are separate records, joined by “and”; a condition that tells them apart may be missing. Equal values may be shown once.

Tests used:
TGR [1] = target: T1, TGR (Schistosoma mansoni, UniProt Q962Y6); assay: Thermal shift assay (TSA); assay type: binding; design: key to Avg. Tm / Tm, replicate 1-3: Tm in °C, from a 25–95 °C melt curve
T1 construct: made in house
T1 sequence (Q962Y6 1-598): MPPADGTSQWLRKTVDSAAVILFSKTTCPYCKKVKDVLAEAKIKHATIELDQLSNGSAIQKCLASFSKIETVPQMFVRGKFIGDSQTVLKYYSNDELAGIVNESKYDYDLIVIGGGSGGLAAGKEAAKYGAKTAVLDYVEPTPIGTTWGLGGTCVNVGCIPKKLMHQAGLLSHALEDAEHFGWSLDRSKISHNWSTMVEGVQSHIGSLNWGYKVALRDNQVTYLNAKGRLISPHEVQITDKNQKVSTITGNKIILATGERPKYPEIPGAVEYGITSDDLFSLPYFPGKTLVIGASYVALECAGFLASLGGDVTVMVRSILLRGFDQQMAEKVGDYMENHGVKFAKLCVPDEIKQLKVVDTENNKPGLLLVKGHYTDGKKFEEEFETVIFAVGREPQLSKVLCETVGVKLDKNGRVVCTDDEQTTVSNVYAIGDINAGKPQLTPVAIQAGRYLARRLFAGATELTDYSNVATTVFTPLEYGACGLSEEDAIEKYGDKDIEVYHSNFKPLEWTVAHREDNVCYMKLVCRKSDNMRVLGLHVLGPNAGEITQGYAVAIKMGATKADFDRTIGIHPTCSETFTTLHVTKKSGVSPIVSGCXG

TGR [2] = target: T2, TGR (Schistosoma mansoni, UniProt Q962Y6, X597U); assay: NADPH consumption (oxidase activity); assay type: biochemical, S. mansoni; details: replicates
T2 construct: made in house
Summary of the method: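 Enzyme (500 nM) preincubated 30 min with compound (TRi-1, Stattic 50 µM; AF 20 µM) and 100 µM NADPH, desalted, then mixed with 100 µM NADPH; NADPH consumption read at 340 nm. Other compounds (50 µM) run without desalting, preincubation 30 min or 2 h.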

TGR [3] = target: T1, TGR; assay: Reversibility by jump dilution; assay type: biochemical
Procedure: A reaction of 370 nM TGR, 100 µM NADPH, and 250 µM inhibitor was incubated for 15 min at room temperature. A 100x dilution of the reaction was made and the activity was determined immediately and after 60 min.

TGR [4] = target: T1, TGR; assay: NADPH dependence of inhibition; assay type: biochemical; design: unit not given here; details: panel b, replicates
Procedure: TGR was incubated at room temperature with inhibitor in the presence or absence of 100 µM NADPH for 15 min. DTNB (3 mM) and NADPH (100 µM) were added, and the reaction was monitored at A412 for 5 min to determine reaction rate. The assay was done in triplicate.

S. japonicum adult worms = assay: Schistosomicidal activity ex vivo, S. japonicum adult worms; assay type: cell-based
Summary of the method: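 Worms recovered from infected Swiss-Webster mice and cultured overnight, then exposed in triplicate to compounds in RPMI (juvenile, adult) at <1% DMSO; 5 µM AF as positive control. Viability calculated as test mean over DMSO-control mean ×100; adult worms read by CellTiter-Glo, alone or with channel blockers.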

TGR [5] = target: T1, TGR; assay: Time dependence of inhibition; assay type: biochemical; details: panel c, replicates
Procedure: TGR was incubated at room temperature (up to 6 h) and at 4 °C for 6 to 24 h with 50 µM inhibitor and 100 µM NADPH for the indicated times. Then DTNB (3 mM) and NADPH (100 µM) were added, and the reaction was monitored at A412 for 5 min. The assay was done in triplicate.

[6] = D0: diluted 1:100, activity determined immediately, list for plotting
[7] = D60: diluted 1:100, activity determined after 60 min, list for plotting
[8] = before dilution (-15), list for plotting

SMILES: Cc1oc(C2CCCCC2)nc1C(=O)N[C@@H]1C[C@@H]2C[C@H]([C@H]1C)C2(C)C [Compound 7]
- Avg. Tm (TGR [1]; TGR + 100 µM compound): 73.6667
- Avg. Tm, + 500 µM NADPH (TGR [1]; TGR + 100 µM compound + 500 µM NADPH): 73.5
- Tm, replicate 1-3, + 500 µM NADPH (TGR [1]; TGR + 100 µM compound + 500 µM NADPH, single replicates, in °C (unit assumed)): 73.5
- Tm, replicate 1-3 (TGR [1]; TGR + 100 µM compound, single replicates): 73.5 (2×) and 74
- NADPH consumption (rate/ΔOD340) (TGR [2]): -0.0008479 and -0.0008204 and -0.0008408
- % Activity (ID list), D0 (TGR [3]; [6]): 98.5% and 102.6% and 100.0%
- % Inhibition (ID list), D0 (TGR [3]; [6]): 1.5% and -2.6%
- % Activity (ID list), D60 (TGR [3]; [7]): 100.2% and 98.4% and 96.1%
- % Inhibition (ID list), D60 (TGR [3]; [7]): -0.17% and 1.6% and 3.9%
- Inhibitor (rate), 0 min (TGR [3]; [0, D0]: 15 min preincubation inhibitor + TGR + NADPH, diluted 1:100, then activity determined immediately, raw rate): 0.04944 and 0.05279
- % Activity, 0 min (TGR [3]; [0, D0]: 15 min preincubation inhibitor + TGR + NADPH, diluted 1:100, then activity determined immediately, relative to DMSO): 98.4664% and 102.604%
- Inhibitor (rate), 60 min (TGR [3]; [60, D60]: 15 min preincubation inhibitor + TGR + NADPH, diluted 1:100, then activity determined after 60 min, raw rate): 0.04706 and 0.04925 and 0.04684
- % Activity, 60 min (TGR [3]; [60, D60]: 15 min preincubation inhibitor + TGR + NADPH, diluted 1:100, then activity determined after 60 min, relative to DMSO): 100.17% and 98.4213% and 96.1018%
- Inhibitor (rate), -15 (TGR [3]; [-15]: 15 min preincubation inhibitor + TGR + NADPH, then activity determined, raw rate, replicates): 0.001091 and 8.088e-5 and -1.437e-5
- % Activity, -15 (TGR [3]; [-15]: 15 min preincubation inhibitor + TGR + NADPH, then activity determined, relative to DMSO, replicates): 2.42% and 0.1757%
- % Activity (ID list) (TGR [3]; [8]): 2.4% and 0.2% and -0.3%
- % Inhibition (ID list) (TGR [3]; [8]): 97.6% and 99.8% and 100.3%
- Rate, no NADPH (TGR [4]; preincubation no NADPH): 0.05983 and 0.05966 and 0.05987
- Rate, with NADPH (TGR [4]; preincubation with NADPH): 0.003086 and 0.003742 and 0.002131
- LD50 ex vivo S. japonicum adult (S. japonicum adult worms; 48 h exposure): 26.8 ± 1.62 µM
- viability at 5 µM (S. japonicum adult worms; Schistosoma japonicum, S. japonicum adult worms, 48 hr, Conc. 5 µM): 89%
- viability at 15 µM (S. japonicum adult worms; Schistosoma japonicum, S. japonicum adult worms, 48 hr, Conc. 15 µM): 71.1%
- viability at 30 µM (S. japonicum adult worms; Schistosoma japonicum, S. japonicum adult worms, 48 hr, Conc. 30 µM): 39.8%
- TGR activity relative to dmso, time 0 (TGR [5]; time 0 (time unit not given)): 10.9848 and 15.3969 and 9.648
- TGR activity relative to dmso, time 5 (TGR [5]; time 5 (time unit not given)): 3.59 and 2.532 and 3.143
- TGR activity relative to dmso, time 10 (TGR [5]; time 10 (time unit not given)): 6.629 and 6.846 and 6.371
- TGR activity relative to dmso, time 15 (TGR [5]; time 15 (time unit not given)): 7.462 and 7.906 and 7.375
- TGR activity relative to dmso, time 30 (TGR [5]; time 30 (time unit not given)): 9.0362 and 7.137 and 8.678
